Assay results published in the NIST ThermoML archive (doi:10.1021/je900124n).
“And” between values parts separate entries of the source, which are not always exact repeats. Equal values may be shown once. Numbers after ± are expanded uncertainties.

Conditions: Fluid (supercritical or subcritical phases), Buoyancy - hydrostatic balance with magnetic suspension - two sinkers

CCC [propane]
Conditions	mass density
369.83 K, 4284.6 kPa	281.214 ± 0.94 kg/m3 and 281.229 ± 0.94 kg/m3 and 281.215 ± 0.94 kg/m3
369.83 K, 4284.7 kPa	281.219 ± 0.94 kg/m3 and 281.22 ± 0.94 kg/m3
369.83 K, 4985.9 kPa	337.354 ± 0.069 kg/m3 and 337.357 ± 0.069 kg/m3
369.83 K, 4986 kPa	337.358 ± 0.069 kg/m3 and 337.357 ± 0.069 kg/m3
369.83 K, 4986.1 kPa	337.356 ± 0.069 kg/m3 and 337.357 ± 0.069 kg/m3
369.83 K, 8381.5 kPa	391.64 ± 0.051 kg/m3
369.83 K, 8382 kPa	391.644 ± 0.051 kg/m3 and 391.642 ± 0.051 kg/m3 and 391.641 ± 0.051 kg/m3
369.83 K, 8382.2 kPa	391.644 ± 0.051 kg/m3
369.83 K, 8382.4 kPa	391.643 ± 0.051 kg/m3
369.83 K, 8382.6 kPa	391.644 ± 0.051 kg/m3
369.85 K, 311.85 kPa	4.5865 ± 0.0029 kg/m3 and 4.5866 ± 0.0029 kg/m3
369.85 K, 311.86 kPa	4.5867 ± 0.0029 kg/m3
369.85 K, 554.46 kPa	8.3301 ± 0.0033 kg/m3 and 8.3303 ± 0.0033 kg/m3
369.85 K, 927.78 kPa	14.4328 ± 0.0041 kg/m3 and 14.4326 ± 0.0041 kg/m3
369.85 K, 927.79 kPa	14.4329 ± 0.0041 kg/m3
369.85 K, 1387.4 kPa	22.6395 ± 0.028 kg/m3 and 22.6384 ± 0.028 kg/m3 and 22.6393 ± 0.028 kg/m3
369.85 K, 1387.5 kPa	22.64 ± 0.028 kg/m3 and 22.6401 ± 0.028 kg/m3
369.85 K, 2120.4 kPa	37.8404 ± 0.033 kg/m3 [middle of 5 runs]
369.85 K, 2871.7 kPa	57.8231 ± 0.041 kg/m3
369.85 K, 2871.8 kPa	57.8298 ± 0.041 kg/m3 and 57.8251 ± 0.041 kg/m3
369.85 K, 3827.6 kPa	100.815 ± 0.11 kg/m3 and 100.816 ± 0.11 kg/m3
369.85 K, 3827.7 kPa	100.817 ± 0.11 kg/m3
369.85 K, 4188.1 kPa	146.906 ± 0.22 kg/m3
369.85 K, 4188.2 kPa	146.91 ± 0.22 kg/m3
369.85 K, 4188.3 kPa	146.915 ± 0.22 kg/m3 and 146.912 ± 0.22 kg/m3
369.85 K, 4188.4 kPa	146.917 ± 0.22 kg/m3
369.85 K, 4241.5 kPa	177.435 ± 0.2 kg/m3
369.85 K, 4241.8 kPa	177.526 ± 0.2 kg/m3 and 177.58 ± 0.2 kg/m3 and 177.506 ± 0.2 kg/m3
369.85 K, 4241.9 kPa	177.65 ± 0.2 kg/m3
369.85 K, 4248.2 kPa	218.49 ± 0.2 kg/m3 and 218.749 ± 0.2 kg/m3 and 220.705 ± 0.21 kg/m3
369.85 K, 4248.3 kPa	224.686 ± 0.21 kg/m3 and 220.268 ± 0.21 kg/m3
369.85 K, 4248.4 kPa	235.513 ± 0.21 kg/m3 and 235.434 ± 0.21 kg/m3
369.85 K, 4248.6 kPa	231.541 ± 0.21 kg/m3 and 236.898 ± 0.21 kg/m3
369.85 K, 4258.6 kPa	265.216 ± 0.22 kg/m3 and 265.238 ± 0.22 kg/m3
369.85 K, 4258.7 kPa	265.211 ± 0.22 kg/m3
369.85 K, 4372.9 kPa	299.086 ± 0.094 kg/m3
369.85 K, 4373 kPa	299.075 ± 0.094 kg/m3
369.85 K, 4373.1 kPa	299.089 ± 0.094 kg/m3
369.85 K, 4373.2 kPa	299.082 ± 0.094 kg/m3
369.85 K, 5012.2 kPa	338.098 ± 0.046 kg/m3
369.85 K, 5012.3 kPa	338.097 ± 0.046 kg/m3
369.85 K, 5012.5 kPa	338.099 ± 0.046 kg/m3
369.85 K, 5012.6 kPa	338.102 ± 0.046 kg/m3
369.85 K, 5520.1 kPa	352.211 ± 0.046 kg/m3
369.85 K, 5520.4 kPa	352.212 ± 0.046 kg/m3
369.86 K, 554.46 kPa	8.3303 ± 0.0033 kg/m3 and 8.3302 ± 0.0033 kg/m3
369.86 K, 927.79 kPa	14.4327 ± 0.0041 kg/m3 and 14.4326 ± 0.0041 kg/m3
369.86 K, 4248.7 kPa	234.526 ± 0.21 kg/m3
369.86 K, 4258.8 kPa	265.251 ± 0.22 kg/m3 and 265.229 ± 0.22 kg/m3
369.86 K, 5520.6 kPa	352.209 ± 0.046 kg/m3 and 352.21 ± 0.046 kg/m3
369.93 K, 4252.7 kPa	197.999 ± 0.92 kg/m3 and 197.778 ± 0.92 kg/m3
369.93 K, 4252.8 kPa	198.048 ± 0.92 kg/m3 [middle of 4 runs]
369.93 K, 4252.9 kPa	197.901 ± 0.92 kg/m3
369.93 K, 4253.8 kPa	232.64 ± 0.88 kg/m3
369.93 K, 4253.9 kPa	232.539 ± 0.88 kg/m3
369.93 K, 4254 kPa	231.862 ± 0.89 kg/m3 [middle of 5 runs]
369.93 K, 4255 kPa	244.442 ± 0.88 kg/m3 [middle of 4 runs]
369.93 K, 4255.1 kPa	244.551 ± 0.88 kg/m3 and 244.556 ± 0.88 kg/m3
